Patent US20090036555A1, “Stabilization of iodine biocides” (priority 2005, published 2009)

Test: Storage stability of IPBC in Dowanol TPM solution with cobalt dryer and stabilizer, IPBC amount by HPLC
Assay type: physicochemical
Conditions: solution in Dowanol TPM with 10% by weight IPBC, 5% by weight Octasoligen-Cobalt 8, 5% by weight stabilizer; for Amount of IPBC (2 weeks, 40° C.): after two weeks storage at 40° C.; for Amount of IPBC (start): at the beginning
Procedure: A solution is prepared in Dowanol TPM (tripropylene glycol methyl ether), containing 10% by weight of iodopropargyl butylcarbamate, 5% by weight of Octasoligen-Cobalt 8 (Borchers, Langenfeld, Germany) and 5% by weight of the stabilizer specified in Table 1. The compositions are stored at 40° C. The amount of IPBC was determined by means of HPLC at the beginning and after two weeks.

| SMILES | Amount of IPBC (2 weeks, 40° C.) | Amount of IPBC (start) |
| --- | --- | --- |
| CC(C)(C)c1ccc(O)c(-n2nc3ccccc3n2)c1 [Example 5] | 9.8% | 9.8% |
| C=C(C)C(=O)OCCc1ccc(O)c(-n2nc3ccccc3n2)c1 [Example 2] | 9.3% | 9.9% |
| CC(C)(C)CC(C)(C)c1ccc(O)c(-n2nc3ccccc3n2)c1 [Example 3] | 9.5% | 9.9% |
| Cc1ccc(O)c(-n2nc3ccccc3n2)c1 [Example 4] | 9.3% | 9.9% |
| OCCc1ccc(O)c(-n2nc3ccccc3n2)c1 [Example 1] | 10.4% | 11.3% |
